For one assay, the system named is HT-29. In words: Cytotoxicity against human HT-29 cells assessed as inhibition of cell viability incubated for 72 hrs. It is filed as functional, cell-based. The note with it: HT-29, 72 h.
The next assay concerns MDA-MB-231. In words: Cytotoxicity against human MDA-MB-231 cells assessed as inhibition of cell viability incubated for 72 hrs. It is filed as functional, cell-based. The note with it: MDA-MB-231, 72 h.
The test system of another assay is MDA-MB-435. In words: Cytotoxicity against human MDA-MB-435 cells assessed as inhibition of cell viability incubated for 72 hrs. The note with it: MDA-MB-435, 72 h. It is filed as functional, cell-based.
The next assay concerns OVCAR-3. In words: Cytotoxicity against human OVCAR-3 cells assessed as inhibition of cell viability incubated for 72 hrs. The note with it: OVCAR-3, 72 h. It is filed as functional, cell-based.
The test system of assay [1] is Staphylococcus epidermidis. In words: Antibacterial activity against Staphylococcus epidermidis by a two-fold serial dilution method. It is filed as functional.
The test system of a further assay is Micrococcus luteus. In words: Antibacterial activity against Micrococcus luteus by a two-fold serial dilution method. It is filed as functional.
Another assay concerns Escherichia coli. In words: Antibacterial activity against Escherichia coli TISTR 780 by a two-fold serial dilution method. It is filed as functional.
The next assay has as its system Salmonella typhimurium. In words: Antibacterial activity against Salmonella typhimurium TISTR 291 by a two-fold serial dilution method. It is filed as functional, Salmonella enterica subsp. enterica serovar Typhimurium. The note with it: Salmonella enterica.

Values after ≈ are worked out from the molar mass of the structure shown.

One may read the IC50 as the concentration that gives 50% inhibition. As to `CC[C@@]12CCCN3C(=O)C(Cl)=C4c5ccccc5N(C(=O)CC1)[C@]432`, the IC50 in the assay on HT-29 was above 10 µM; in the assay with MDA-MB-231 it was above 10 µM; in the assay on MDA-MB-435 it was above 10 µM; in the assay on OVCAR-3 it was 5.9 µM.

Usually MIC stands for the lowest concentration that inhibits growth of the organism. Low readings indicate greater potency, high ones weaker potency. For the compound `CC[C@@]12CCCN3C(=O)C=C4c5ccccc5N(C(=O)CC1)[C@]432`, the IC50 in the assay with HT-29 was above 10 µM; in the assay with MDA-MB-231, above 10 µM; with MDA-MB-435, above 10 µM; in the assay with OVCAR-3, 9.1 µM. In addition, the MIC (in assay [1]; in the assay with Micrococcus luteus; with Escherichia coli; against Salmonella typhimurium) was 64 µg/mL (≈ 208 µM) each time.

These data come from ChEMBL document CHEMBL5335806, “Cytotoxic leuconoxine-type diazaspiroindole alkaloids isolated from Cryptolepis dubia” (Bioorg Med Chem Lett, 2024).
